“And” between values parts separate entries of the source, which are not always exact repeats. Identical values can stand only once. Counter-ions that a name gives are not always drawn. Like-named read-outs stand apart in the source and are kept apart here.
Legend:
[1] = test system: N. gonorrhoeae clinical isolates (n = 38); experiment: microbe, parasite or virus in culture; format: cell-based, Neisseria gonorrhoeae; conditions: for MIC50 / MIC90: Neisseria gonorrhoeae
Protocol: (§1) The bacterial reference strains used in this study were purchased from ATCC (American Type Culture Collection) via LGC Standards (Middlesex, UK). […] Clinical MDR isolates were provided by Aptuit, the IHMA Europa Sàrl repository (Epalinges, Switzerland) and the Statens Serum Institute (Copenhagen, Denmark).
(§2) MICs were determined by the broth microdilution method (the agar dilution method was used only for N. gonorrhoeae) according to CLSI guidelines.
(§3) The results obtained using clinical isolates are reported as MIC50 and MIC90 values.

[2] = test system: N. gonorrhoeae ATCC 49226; experiment: MIC, agar dilution; format: cell-based; conditions: Neisseria gonorrhoeae, ATCC49226; N. gonorrhoeae ATCC 49226, ciprofloxacin-susceptible
Protocol: as §2

N. gonorrhoeae WHO N = experiment: MIC, agar dilution; format: cell-based; conditions: Neisseria gonorrhoeae, ciprofloxacin-resistant
Protocol: as §2

N. gonorrhoeae WHO K = experiment: MIC, agar dilution; format: cell-based; conditions: Neisseria gonorrhoeae, ciprofloxacin-resistant
Protocol: as §2

N. gonorrhoeae WHO L = experiment: MIC, agar dilution; format: cell-based; conditions: Neisseria gonorrhoeae, ciprofloxacin-resistant
Protocol: as §2

[3] = test system: N. gonorrhoeae ATCC 19424; experiment: MIC, agar dilution; format: cell-based; conditions: Neisseria gonorrhoeae, ATCC19424; N. gonorrhoeae ATCC 19424, ciprofloxacin-susceptible
Protocol: as §2

[4] = target: T1, S. aureus Topoisomerase IV (Staphylococcus aureus, UniProt P0C1U9); experiment: S. aureus topoisomerase IV decatenation gel assay; format: biochemical
T1 construct: purchased Inspiralis (Norwich, UK)
Protocol: (§4) S. aureus and E. coli DNA gyrase supercoiling and topo IV decatenation assay kits, as well as human topoisomerase II decatenation assay kits, were provided by Inspiralis (Norwich, UK). Assays were performed according to the manufacturer’s instructions. The compounds were serially diluted (1:3 dilutions starting from a 300 μM final concentration) and assayed in a reaction mixture to obtain concentration-response curves in two different replicate experiments. The final concentration of DMSO in the assays was 1% (v/v). The reactions were terminated by the addition of 30 μl chloroform/isoamyl alcohol (26:1) and 30 μl Stop Dye (40% sucrose, 100 mM Tris HCl pH 7.5, 1 mM EDTA, 0.5 μg/ml bromophenol blue), after which the samples were loaded onto a 1.0% TAE ([…]) gel that was then run at 80 V for 2 hours. DNA bands were visualized by ethidium bromide staining the gel for 10 minutes, which was then destained for 10 minutes in water and analysed using gel documentation equipment (Syngene, Cambridge, UK). The DNA in each band was quantitated using Syngene Gene Tools software. Raw gel data (fluorescent band volumes) were converted by the software to percentages of the control (the fully supercoiled or decatenated DNA band). […] The global curve fit non-linear regression tool was used to calculate the IC50 values. The results are expressed as the average values obtained after calculating the IC50 from each replicate run.

E. coli Topoisomerase IV = target: T2, E. coli Topoisomerase IV (Escherichia coli, UniProt P0AFI2); experiment: E. coli topoisomerase IV decatenation gel assay; format: biochemical
T2 construct: purchased Inspiralis (Norwich, UK)
Protocol: as §4

P. aeruginosa ATCC 27853 = experiment: MIC, broth microdilution; format: cell-based; conditions: Pseudomonas aeruginosa, ATCC27853; P. aeruginosa ATCC 27853, ciprofloxacin-susceptible
Protocol: as §2

E. faecalis ATCC 29212 = experiment: MIC, broth microdilution; format: cell-based; conditions: Enterococcus faecalis, ATCC29212; E. faecalis ATCC 29212, ciprofloxacin-susceptible
Protocol: as §2

S. pneumoniae ATCC 49619 = experiment: MIC, broth microdilution; format: cell-based; conditions: Streptococcus pneumoniae, ATCC49619; S. pneumoniae ATCC 49619, ciprofloxacin-susceptible
Protocol: as §2

E. coli ATCC 25922 = experiment: MIC, broth microdilution; format: cell-based; conditions: Escherichia coli, ATCC25922; E. coli ATCC 25922, ciprofloxacin-susceptible
Protocol: as §2

H. influenzae ATCC 49766 = experiment: MIC, broth microdilution; format: cell-based; conditions: Haemophilus influenzae, ATCC49766; H. influenzae ATCC 49766, ciprofloxacin-susceptible
Protocol: as §2

S. aureus BAA-1720 = experiment: MIC, broth microdilution; format: cell-based; conditions: Staphylococcus aureus, BAA1720; S. aureus BAA-1720, ciprofloxacin-resistant
Protocol: as §2

[5] = test system: K. pneumoniae ATCC 700603; experiment: MIC, broth microdilution; format: cell-based; conditions: Klebsiella pneumoniae, ATCC700603; K. pneumoniae ATCC 700603, ciprofloxacin-susceptible
Protocol: as §2

[6] = test system: K. pneumoniae AcrAB- mutant; experiment: microbe, parasite or virus in culture; format: cell-based; conditions: Klebsiella pneumoniae
Protocol: as §1, §2

E. coli TolC- mutant = experiment: microbe, parasite or virus in culture; format: cell-based; conditions: Escherichia coli
Protocol: as §1, §2

Human Topoisomerase II = target: T3, Human Topoisomerase II (Homo sapiens, UniProt P11388); experiment: Human topoisomerase II decatenation gel assay; format: biochemical
T3 construct: purchased Inspiralis (Norwich, UK)
Protocol: as §4

E. coli DNA gyrase = target: T4, E. coli DNA gyrase (Escherichia coli, UniProt P0AES4); experiment: E. coli DNA gyrase supercoiling gel assay; format: biochemical
T4 construct: purchased Inspiralis (Norwich, UK)
Protocol: as §4

[7] = test system: E. faecalis clinical isolates (n = 12) vanA (6)/vanB (6); experiment: MIC, multidrug-resistant clinical isolates; format: cell-based; conditions: Enterococcus faecalis; for MIC: read-out: MIC range
Protocol: as §1, §2, §3

[8] = test system: E. faecium clinical isolates (n = 12) vanA (6)/vanB (6); experiment: MIC, multidrug-resistant clinical isolates; format: cell-based; conditions: Enterococcus faecium; for MIC: read-out: MIC range
Protocol: as §1, §2, §3

S. aureus ATCC 29213 = experiment: MIC, broth microdilution; format: cell-based, Staphylococcus aureus; conditions: Staphylococcus aureus, ATCC29213, S. aureus ATCC 29213, ciprofloxacin-susceptible
Protocol: as §2

S. aureus DNA gyrase = target: T5, S. aureus DNA gyrase (Staphylococcus aureus, UniProt P20831); experiment: S. aureus DNA gyrase supercoiling gel assay; format: biochemical
T5 construct: purchased Inspiralis (Norwich, UK)
Protocol: as §4

[9] = replicate Assay 1, read-out: IC50 S. aureus Topoisomerase IV decatenation, Assay 1
[10] = replicate Assay 2, read-out: IC50 S. aureus Topoisomerase IV decatenation, Assay 2
[11] = average of two replicate experiments, read-out: IC50 E. coli Topoisomerase IV decatenation (average)
[12] = replicate Assay 1, read-out: IC50 E. coli Topoisomerase IV decatenation, Assay 1
[13] = replicate Assay 2, read-out: IC50 E. coli Topoisomerase IV decatenation, Assay 2
[14] = average of two replicate experiments, read-out: IC50 Human Topoisomerase II decatenation (average)
[15] = replicate Assay 1, read-out: IC50 Human Topoisomerase II (TopoII) decatenation, Assay 1
[16] = replicate Assay 2, read-out: IC50 Human Topoisomerase II (TopoII) decatenation, Assay 2
[17] = average of two replicate experiments, read-out: IC50 E. coli Gyrase Supercoiling (average)
[18] = replicate Assay 1, read-out: IC50 E. coli gyrase Supercoiling, Assay 1
[19] = replicate Assay 2, read-out: IC50 E. coli gyrase Supercoiling, Assay 2
[20] = average of two replicate experiments, read-out: IC50 S. aureus Gyrase Supercoiling (average)
[21] = replicate Assay 1, read-out: IC50 S.aureus gyrase Supercoiling, Assay 1
[22] = replicate Assay 2, read-out: IC50 S.aureus gyrase Supercoiling, Assay 2

T4 sequence (P0AES4 whole entry): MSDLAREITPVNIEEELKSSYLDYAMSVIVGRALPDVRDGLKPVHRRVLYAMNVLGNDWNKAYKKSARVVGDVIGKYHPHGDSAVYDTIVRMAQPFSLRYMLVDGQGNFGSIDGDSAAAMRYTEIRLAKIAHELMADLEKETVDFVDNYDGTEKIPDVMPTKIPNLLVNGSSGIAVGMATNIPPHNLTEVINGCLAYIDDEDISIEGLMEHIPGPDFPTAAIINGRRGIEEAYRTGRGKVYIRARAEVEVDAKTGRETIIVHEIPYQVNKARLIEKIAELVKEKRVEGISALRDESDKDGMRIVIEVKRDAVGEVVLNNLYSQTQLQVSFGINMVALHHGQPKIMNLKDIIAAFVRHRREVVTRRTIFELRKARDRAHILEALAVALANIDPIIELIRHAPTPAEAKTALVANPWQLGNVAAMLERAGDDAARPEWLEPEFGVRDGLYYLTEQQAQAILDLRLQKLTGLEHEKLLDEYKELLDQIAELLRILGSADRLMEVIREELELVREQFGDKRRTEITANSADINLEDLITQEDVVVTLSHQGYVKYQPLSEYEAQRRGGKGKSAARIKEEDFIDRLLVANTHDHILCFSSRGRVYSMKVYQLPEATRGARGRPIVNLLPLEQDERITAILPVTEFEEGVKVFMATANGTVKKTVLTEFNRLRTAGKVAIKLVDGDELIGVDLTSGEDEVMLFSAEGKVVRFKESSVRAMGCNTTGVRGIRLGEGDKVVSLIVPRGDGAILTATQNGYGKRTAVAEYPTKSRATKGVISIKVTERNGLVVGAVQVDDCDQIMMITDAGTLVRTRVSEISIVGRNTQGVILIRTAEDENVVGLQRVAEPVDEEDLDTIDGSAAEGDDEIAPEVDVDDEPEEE
T3 sequence (P11388 whole entry): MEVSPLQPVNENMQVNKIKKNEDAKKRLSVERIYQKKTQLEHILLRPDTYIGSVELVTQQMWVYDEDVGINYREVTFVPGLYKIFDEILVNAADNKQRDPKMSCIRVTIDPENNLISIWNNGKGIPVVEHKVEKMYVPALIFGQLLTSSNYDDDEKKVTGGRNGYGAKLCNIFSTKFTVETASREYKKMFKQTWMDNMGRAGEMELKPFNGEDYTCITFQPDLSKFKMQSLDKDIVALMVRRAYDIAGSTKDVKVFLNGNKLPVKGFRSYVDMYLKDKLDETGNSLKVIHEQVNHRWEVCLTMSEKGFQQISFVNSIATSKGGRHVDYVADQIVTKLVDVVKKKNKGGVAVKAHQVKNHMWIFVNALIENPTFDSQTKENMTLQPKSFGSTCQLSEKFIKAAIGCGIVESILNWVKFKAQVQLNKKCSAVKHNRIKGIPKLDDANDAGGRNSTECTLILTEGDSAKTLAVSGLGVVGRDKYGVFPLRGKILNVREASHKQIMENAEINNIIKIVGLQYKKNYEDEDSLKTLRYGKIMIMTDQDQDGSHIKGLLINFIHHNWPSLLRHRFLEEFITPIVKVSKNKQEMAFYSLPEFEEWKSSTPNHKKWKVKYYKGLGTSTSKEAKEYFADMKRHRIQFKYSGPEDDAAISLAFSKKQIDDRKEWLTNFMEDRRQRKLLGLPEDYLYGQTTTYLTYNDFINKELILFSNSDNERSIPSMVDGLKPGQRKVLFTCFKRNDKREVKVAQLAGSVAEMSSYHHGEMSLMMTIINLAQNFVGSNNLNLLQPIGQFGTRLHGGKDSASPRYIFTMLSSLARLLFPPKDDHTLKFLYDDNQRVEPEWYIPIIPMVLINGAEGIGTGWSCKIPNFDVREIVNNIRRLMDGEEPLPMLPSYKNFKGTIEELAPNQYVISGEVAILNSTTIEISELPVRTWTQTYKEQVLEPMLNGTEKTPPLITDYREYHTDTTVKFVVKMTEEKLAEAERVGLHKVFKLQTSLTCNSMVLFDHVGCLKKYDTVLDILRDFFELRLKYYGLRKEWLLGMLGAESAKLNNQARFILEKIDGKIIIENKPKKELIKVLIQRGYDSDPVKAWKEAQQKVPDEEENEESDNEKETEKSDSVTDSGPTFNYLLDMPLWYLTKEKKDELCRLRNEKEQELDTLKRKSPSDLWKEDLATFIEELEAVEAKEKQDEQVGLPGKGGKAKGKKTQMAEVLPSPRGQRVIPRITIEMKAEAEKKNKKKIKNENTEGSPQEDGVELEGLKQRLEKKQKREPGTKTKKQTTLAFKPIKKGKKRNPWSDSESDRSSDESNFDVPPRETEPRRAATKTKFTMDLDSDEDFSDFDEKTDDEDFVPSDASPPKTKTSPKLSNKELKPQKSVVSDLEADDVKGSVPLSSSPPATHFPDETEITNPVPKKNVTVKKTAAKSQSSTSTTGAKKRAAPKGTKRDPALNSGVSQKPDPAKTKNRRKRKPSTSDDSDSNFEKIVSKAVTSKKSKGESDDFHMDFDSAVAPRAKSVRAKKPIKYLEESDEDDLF
T1 sequence (P0C1S7 whole entry): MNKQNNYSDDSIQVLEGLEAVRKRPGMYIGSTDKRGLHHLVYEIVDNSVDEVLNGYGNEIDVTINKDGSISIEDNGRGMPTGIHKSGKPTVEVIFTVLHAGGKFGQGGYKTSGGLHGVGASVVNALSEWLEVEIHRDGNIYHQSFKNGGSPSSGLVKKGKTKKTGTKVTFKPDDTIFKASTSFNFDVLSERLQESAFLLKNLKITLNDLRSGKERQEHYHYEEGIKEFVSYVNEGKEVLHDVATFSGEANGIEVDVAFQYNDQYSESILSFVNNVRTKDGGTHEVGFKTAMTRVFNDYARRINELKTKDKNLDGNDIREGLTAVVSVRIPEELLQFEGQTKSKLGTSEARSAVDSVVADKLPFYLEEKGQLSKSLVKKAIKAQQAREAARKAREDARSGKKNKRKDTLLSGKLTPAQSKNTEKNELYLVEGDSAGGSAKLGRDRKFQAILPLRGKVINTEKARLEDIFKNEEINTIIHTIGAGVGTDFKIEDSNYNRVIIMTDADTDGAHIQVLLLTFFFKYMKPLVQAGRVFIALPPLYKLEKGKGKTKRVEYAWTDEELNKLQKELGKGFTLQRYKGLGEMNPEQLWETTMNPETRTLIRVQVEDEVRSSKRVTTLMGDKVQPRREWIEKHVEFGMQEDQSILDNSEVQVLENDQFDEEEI
T1 sequence (P0C1U9 whole entry): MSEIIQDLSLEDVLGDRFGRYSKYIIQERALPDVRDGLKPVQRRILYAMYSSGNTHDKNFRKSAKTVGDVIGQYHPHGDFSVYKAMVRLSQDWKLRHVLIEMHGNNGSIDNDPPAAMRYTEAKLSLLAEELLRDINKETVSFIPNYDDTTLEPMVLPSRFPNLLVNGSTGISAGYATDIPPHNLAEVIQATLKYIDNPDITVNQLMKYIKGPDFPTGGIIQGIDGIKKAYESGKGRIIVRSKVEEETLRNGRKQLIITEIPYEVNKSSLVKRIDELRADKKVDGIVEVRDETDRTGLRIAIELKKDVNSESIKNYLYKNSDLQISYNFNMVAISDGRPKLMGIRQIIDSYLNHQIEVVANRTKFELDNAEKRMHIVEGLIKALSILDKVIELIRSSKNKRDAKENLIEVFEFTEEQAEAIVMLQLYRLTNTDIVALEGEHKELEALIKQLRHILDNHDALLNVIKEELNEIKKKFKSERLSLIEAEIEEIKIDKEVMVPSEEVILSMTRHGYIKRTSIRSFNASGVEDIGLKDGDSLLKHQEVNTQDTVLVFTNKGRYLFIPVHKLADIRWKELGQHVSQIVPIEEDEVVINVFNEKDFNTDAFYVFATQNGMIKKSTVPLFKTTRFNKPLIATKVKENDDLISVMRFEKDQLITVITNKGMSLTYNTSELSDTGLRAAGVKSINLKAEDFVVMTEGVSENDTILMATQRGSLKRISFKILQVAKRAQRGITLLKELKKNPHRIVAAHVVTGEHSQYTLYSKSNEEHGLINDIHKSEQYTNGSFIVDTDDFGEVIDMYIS

SMILES | MIC range [1] | MIC50 [1] | MIC90 [1] | MIC [2] | MIC (N. gonorrhoeae WHO N) | MIC (N. gonorrhoeae WHO K) | MIC (N. gonorrhoeae WHO L) | MIC [3] | IC50 [4, 9] | IC50 [4, 10] | IC50 (E. coli Topoisomerase IV; [11]) | IC50 (E. coli Topoisomerase IV; [12]) | IC50 (E. coli Topoisomerase IV; [13]) | MIC (P. aeruginosa ATCC 27853) | MIC (E. faecalis ATCC 29212) | MIC (S. pneumoniae ATCC 49619) | MIC (E. coli ATCC 25922) | MIC (H. influenzae ATCC 49766) | MIC (S. aureus BAA-1720) | MIC [5] | other results
O=c1oc2ccc(F)cc2c2[nH]c(CN[C@H]3CC[C@H](n4c(=O)cnc5ncc(F)cc54)CC3)cc12 [Compound 4, 8-fluoro-2-({[trans-4-(7-fluoro-2-oxopyrido[2,3-b]pyrazin-1(2H)-yl)cyclohexyl]amino}methyl)[1]benzopyrano[4,3-b]pyrrol-4(1H)-one (formate salt)] | 0.004 to 0.12 µg/mL | 0.06 µg/mL | 0.12 µg/mL | 0.06 µg/mL | 0.06 µg/mL | 0.12 µg/mL | 0.12 µg/mL | ≤ 0.06 µg/mL | 260 nM | 170 nM | 300 nM | 500 nM | 200 nM | 2 µg/mL | 0.5 µg/mL | 0.25 µg/mL | 0.5 µg/mL | 0.12 µg/mL | 0.5 µg/mL | 4 µg/mL | IC50 [4]: 220 nM; MIC [6]: 0.03 µg/mL; MIC (E. coli TolC- mutant): ≤ 0.016 µg/mL; IC50 (Human Topoisomerase II; [14]): > 300000 nM; IC50 (Human Topoisomerase II; [15]): > 300000 nM; IC50 (Human Topoisomerase II; [16]): > 300000 nM; IC50 (E. coli DNA gyrase; [17]): 130 nM; IC50 (E. coli DNA gyrase; [18]): 150 nM; IC50 (E. coli DNA gyrase; [19]): 120 nM; MIC50 [7]: 0.25 µg/mL; MIC90 [7]: 0.5 µg/mL; MIC [7]: 0.12 to 1 µg/mL; MIC50 [8]: 1 µg/mL; MIC90 [8]: 1 µg/mL; MIC [8]: 0.25 to 8 µg/mL; MIC (S. aureus ATCC 29213): 0.25 µg/mL; IC50 (S. aureus DNA gyrase; [20]): 1000 nM; IC50 (S. aureus DNA gyrase; [21]): 800 nM; IC50 (S. aureus DNA gyrase; [22]): 1200 nM
COc1cnc2ncc(=O)n([C@H]3CC[C@H](NCc4cc5c(=O)oc6ccc(F)cc6c5[nH]4)CC3)c2c1 [Compound 5, 8-Fluoro-2-({[trans-4-(7-methoxy-2-oxopyrido[2,3-b]pyrazin-1(2H)-yl)cyclohexyl]amino}methyl)[1]benzopyrano[4,3-b]pyrrol-4(1H)-one hydrochloride] | 0.016 to 0.25 µg/mL | 0.12 µg/mL | 0.25 µg/mL | 0.125 µg/mL | 0.12 µg/mL | 0.25 µg/mL | 0.25 µg/mL | ≤ 0.06 µg/mL | 80 nM | 60 nM | 140 nM | 120 nM | 160 nM | 4 µg/mL | 0.25 µg/mL | 0.5 µg/mL | 0.5 µg/mL | 0.12 µg/mL | 1 µg/mL | 8 µg/mL | IC50 ([4]; average of two replicate experiments, read-out: IC50 S. aureus Topoisomerase IV decatenation (average)): 70 nM; MIC [6]: 0.03 µg/mL; MIC (E. coli TolC- mutant): ≤ 0.016 µg/mL; IC50 (Human Topoisomerase II; [14]): 9120 nM and 9000 nM; IC50 (Human Topoisomerase II; [15]): 5450 nM; IC50 (Human Topoisomerase II; [16]): 12800 nM; IC50 (E. coli DNA gyrase; [17]): 100 nM; IC50 (E. coli DNA gyrase; [18]): 90 nM; IC50 (E. coli DNA gyrase; [19]): 100 nM; MIC50 [7]: 0.5 µg/mL; MIC90 [7]: 2 µg/mL; MIC [7]: 0.25 to 4 µg/mL; MIC50 [8]: 1 µg/mL; MIC90 [8]: 4 µg/mL; MIC [8]: 0.25 to 8 µg/mL; MIC (S. aureus ATCC 29213): 0.5 µg/mL; IC50 (S. aureus DNA gyrase; [20]): 170 nM; IC50 (S. aureus DNA gyrase; [21]): 160 nM; IC50 (S. aureus DNA gyrase; [22]): 170 nM

— article PMC7029851, “Antibacterial activity of novel dual bacterial DNA type II topoisomerase inhibitors” (PLoS ONE, 2020)
